Reference: patent publication US20230085307A1, “PYRIDAZINONE COMPOUND AND HERBICIDE” (NISSAN CHEMICAL CORPORATION, priority 2019, published 2023)

These compounds were tested on green foxtail (assay: Test Example 4: herbicidal effect by soil treatment (Table 19, symbol G)). Conditions: AAH 320 g/ha.
Assay type: in vivo, green foxtail (Setaria viridis)
Outline: (§1)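 Scoring uses the grading scale of an earlier test, three weeks post-application. Treatment consists of spraying a diluted emulsion formulation across the surface of sterilized diluvial soil in which seeds are buried near 1.5 cm deep; boxes are kept in a greenhouse between 25° C. and 30° C.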
In the case of C=CCOc1ccc(-c2sc3ccccc3c2-c2c(O)c(C)nn(C)c2=O)cc1 [1-139], the “G: green foxtail, herbicidal effect rating” value is reported as 3 (Herbicidal rate of 40% or more and less than 70%).

The compounds below were run on redroot pigweed (assay: Test Example 4: herbicidal effect by soil treatment (Table 19, symbol N)). Conditions: AAH 320 g/ha.
Assay type: in vivo, redroot pigweed (Amaranthus retroflexus)
Outline: as §1
For C=CCOc1ccc(-c2sc3ccccc3c2-c2c(O)c(C)nn(C)c2=O)cc1 [1-139], the “N: redroot pigweed, herbicidal effect rating” value was 5 (Herbicidal rate of 90% or more (almost completely withered)).

Each compound was assayed on persian speedwell (assay: Test Example 4: herbicidal effect by soil treatment (Table 19, symbol R)). Conditions: AAH 320 g/ha.
Assay type: in vivo, Persian speedwell (Veronica persica)
Outline: as §1
With C=CCOc1ccc(-c2sc3ccccc3c2-c2c(O)c(C)nn(C)c2=O)cc1 [1-139] the “R: persian speedwell, herbicidal effect rating” value was 5 (Herbicidal rate of 90% or more (almost completely withered)).

These compounds were tested on lambsquarters (assay: Test Example 4: herbicidal effect by soil treatment (Table 19, symbol O)). Conditions: AAH 320 g/ha.
Assay type: in vivo, lambsquarters (Chenopodium album)
Outline: as §1
C=CCOc1ccc(-c2sc3ccccc3c2-c2c(O)c(C)nn(C)c2=O)cc1 [1-139] was tested, and the “O: lambsquarters, herbicidal effect rating” value was 4 (Herbicidal rate of 70% or more and less than 90%).

The compounds below were run on barnyard grass (assay: Test Example 5: herbicidal effect by foliage application, plastic box (Table 20, symbol H)). Conditions: foliage application, AAH 320 g/ha, three weeks after application.
Assay type: in vivo, barnyard grass (Echinochloa crus-galli)
Outline: (§2)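 Post-emergence foliar test in sterilized diluvial soil. Compound applied as water-diluted emulsion at a predetermined rate to 14-day-old plants; evaluation at three weeks.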
With C=CCOc1ccc(-c2sc3ccccc3c2-c2c(O)c(C)nn(C)c2=O)cc1 [1-139] the “H: barnyard grass, herbicidal effect” value was 5 (Herbicidal rate of 90% or more (almost completely withered)).

These compounds were tested on lambsquarters (assay: Test Example 5: herbicidal effect by foliage application, plastic box (Table 20, symbol O)). Conditions: foliage application, AAH 320 g/ha, three weeks after application.
Assay type: in vivo, lambsquarters (Chenopodium album)
Outline: as §2
In the case of C=CCOc1ccc(-c2sc3ccccc3c2-c2c(O)c(C)nn(C)c2=O)cc1 [1-139], the “O: lambsquarters, herbicidal effect” value is reported as 4 (Herbicidal rate of 70% or more and less than 90%).

The compounds below were run on windgrass (assay: Test Example 4: herbicidal effect by soil treatment (Table 19, symbol L)). Conditions: AAH 320 g/ha.
Assay type: in vivo, windgrass (Apera spica-venti)
Outline: as §1
In the case of C=CCOc1ccc(-c2sc3ccccc3c2-c2c(O)c(C)nn(C)c2=O)cc1 [1-139], the “L: windgrass, herbicidal effect rating” value is reported as 3 (Herbicidal rate of 40% or more and less than 70%).

The compounds below were run on wild oat (assay: Test Example 4: herbicidal effect by soil treatment (Table 19, symbol I)). Conditions: AAH 320 g/ha.
Assay type: in vivo, wild oat (Avena fatua)
Outline: as §1
In the case of C=CCOc1ccc(-c2sc3ccccc3c2-c2c(O)c(C)nn(C)c2=O)cc1 [1-139], the “I: wild oat, herbicidal effect rating” value is reported as 0 (Herbicidal rate of 5% or less (almost no effect)).

The compounds below were run on wild oat (assay: Test Example 5: herbicidal effect by foliage application, plastic box (Table 20, symbol I)). Conditions: foliage application, AAH 320 g/ha, three weeks after application.
Assay type: in vivo, wild oat (Avena fatua)
Outline: as §2
In the case of C=CCOc1ccc(-c2sc3ccccc3c2-c2c(O)c(C)nn(C)c2=O)cc1 [1-139], the “I: wild oat, herbicidal effect” value is reported as 4 (Herbicidal rate of 70% or more and less than 90%).

What follows are compounds tested on Italian ryegrass (assay: Test Example 5: herbicidal effect by foliage application, plastic box (Table 20, symbol K)). Conditions: foliage application, AAH 320 g/ha, three weeks after application.
Assay type: in vivo, Italian ryegrass (Lolium multiflorum)
Outline: as §2
For C=CCOc1ccc(-c2sc3ccccc3c2-c2c(O)c(C)nn(C)c2=O)cc1 [1-139], the “K: Italian ryegrass, herbicidal effect” value was 5 (Herbicidal rate of 90% or more (almost completely withered)).

These compounds were tested on persian speedwell (assay: Test Example 5: herbicidal effect by foliage application, plastic box (Table 20, symbol R)). Conditions: foliage application, AAH 320 g/ha, three weeks after application.
Assay type: in vivo, Persian speedwell (Veronica persica)
Outline: as §2
With C=CCOc1ccc(-c2sc3ccccc3c2-c2c(O)c(C)nn(C)c2=O)cc1 [1-139] the “R: persian speedwell, herbicidal effect” value was 5 (Herbicidal rate of 90% or more (almost completely withered)).

These compounds were tested on chickweed (assay: Test Example 5: herbicidal effect by foliage application, plastic box (Table 20, symbol P)). Conditions: foliage application, AAH 320 g/ha, three weeks after application.
Assay type: in vivo, common chickweed (Stellaria media)
Outline: as §2
For C=CCOc1ccc(-c2sc3ccccc3c2-c2c(O)c(C)nn(C)c2=O)cc1 [1-139], the “P: chickweed, herbicidal effect” value was 5 (Herbicidal rate of 90% or more (almost completely withered)).

Each compound was assayed on blackgrass (assay: Test Example 4: herbicidal effect by soil treatment (Table 19, symbol J)). Conditions: AAH 320 g/ha.
Assay type: in vivo, blackgrass (Alopecurus myosuroides)
Outline: as §1
With C=CCOc1ccc(-c2sc3ccccc3c2-c2c(O)c(C)nn(C)c2=O)cc1 [1-139] the “J: blackgrass, herbicidal effect rating” value was 0 (Herbicidal rate of 5% or less (almost no effect)).

Each compound was assayed on chickweed (assay: Test Example 4: herbicidal effect by soil treatment (Table 19, symbol P)). Conditions: AAH 320 g/ha.
Assay type: in vivo, common chickweed (Stellaria media)
Outline: as §1
With C=CCOc1ccc(-c2sc3ccccc3c2-c2c(O)c(C)nn(C)c2=O)cc1 [1-139] the “P: chickweed, herbicidal effect rating” value was 5 (Herbicidal rate of 90% or more (almost completely withered)).

What follows are compounds tested on green foxtail (assay: Test Example 5: herbicidal effect by foliage application, plastic box (Table 20, symbol G)). Conditions: foliage application, AAH 320 g/ha, three weeks after application.
Assay type: in vivo, green foxtail (Setaria viridis)
Outline: as §2
For C=CCOc1ccc(-c2sc3ccccc3c2-c2c(O)c(C)nn(C)c2=O)cc1 [1-139], the “G: green foxtail, herbicidal effect” value was 5 (Herbicidal rate of 90% or more (almost completely withered)).

The compounds below were run on blackgrass (assay: Test Example 5: herbicidal effect by foliage application, plastic box (Table 20, symbol J)). Conditions: foliage application, AAH 320 g/ha, three weeks after application.
Assay type: in vivo, blackgrass (Alopecurus myosuroides)
Outline: as §2
For C=CCOc1ccc(-c2sc3ccccc3c2-c2c(O)c(C)nn(C)c2=O)cc1 [1-139], the “J: blackgrass, herbicidal effect” value was 4 (Herbicidal rate of 70% or more and less than 90%).

Each compound was assayed on windgrass (assay: Test Example 5: herbicidal effect by foliage application, plastic box (Table 20, symbol L)). Conditions: foliage application, AAH 320 g/ha, three weeks after application.
Assay type: in vivo, windgrass (Apera spica-venti)
Outline: as §2
In the case of C=CCOc1ccc(-c2sc3ccccc3c2-c2c(O)c(C)nn(C)c2=O)cc1 [1-139], the “L: windgrass, herbicidal effect” value is reported as 5 (Herbicidal rate of 90% or more (almost completely withered)).

These compounds were tested on velvetleaf (assay: Test Example 5: herbicidal effect by foliage application, plastic box (Table 20, symbol M)). Conditions: foliage application, AAH 320 g/ha, three weeks after application.
Assay type: in vivo, velvetleaf (Abutilon theophrasti)
Outline: as §2
C=CCOc1ccc(-c2sc3ccccc3c2-c2c(O)c(C)nn(C)c2=O)cc1 [1-139] was tested, and the “M: velvetleaf, herbicidal effect” value was 4 (Herbicidal rate of 70% or more and less than 90%).

The compounds below were run on Chinese sprangletop (assay: Test Example 3: herbicidal effect by foliage application, Wagner pot (Table 18, symbol D)). Conditions: 320 g/ha.
Assay type: in vivo, chinese sprangletop (Leptochloa chinensis)
Outline: (§3)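 Plants were sown in alluvial soil held under 0.1–0.5 cm standing water and grown 14 days in a greenhouse at 25–30 °C. An emulsifiable formulation, water-diluted to the set dose, was then sprayed onto the foliage, and effects were scored three weeks later using previously defined criteria.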
In the case of C=CCOc1ccc(-c2sc3ccccc3c2-c2c(O)c(C)nn(C)c2=O)cc1 [1-139], the “herbicidal effect on D (Chinese sprangletop), rating 0-5” value is reported as 0 (Herbicidal rate of 5% or less (almost no effect)).

These compounds were tested on southern crabgrass (assay: Test Example 4: herbicidal effect by soil treatment (Table 19, symbol F)). Conditions: AAH 320 g/ha.
Assay type: in vivo, southern crabgrass (Digitaria ciliaris)
Outline: as §1
For C=CCOc1ccc(-c2sc3ccccc3c2-c2c(O)c(C)nn(C)c2=O)cc1 [1-139], the “F: southern crabgrass, herbicidal effect rating” value was 0 (Herbicidal rate of 5% or less (almost no effect)).

What follows are compounds tested on barnyard grass (assay: Test Example 3: herbicidal effect by foliage application, Wagner pot (Table 18, symbol H)). Conditions: 320 g/ha.
Assay type: in vivo, barnyard grass (Echinochloa crus-galli)
Outline: as §3
In the case of C=CCOc1ccc(-c2sc3ccccc3c2-c2c(O)c(C)nn(C)c2=O)cc1 [1-139], the “herbicidal effect on H (barnyard grass), rating 0-5” value is reported as 5 (Herbicidal rate of 90% or more (almost completely withered)).

What follows are compounds tested on Italian ryegrass (assay: Test Example 4: herbicidal effect by soil treatment (Table 19, symbol K)). Conditions: AAH 320 g/ha.
Assay type: in vivo, Italian ryegrass (Lolium multiflorum)
Outline: as §1
C=CCOc1ccc(-c2sc3ccccc3c2-c2c(O)c(C)nn(C)c2=O)cc1 [1-139] was tested, and the “K: Italian ryegrass, herbicidal effect rating” value was 5 (Herbicidal rate of 90% or more (almost completely withered)).

The compounds below were run on redroot pigweed (assay: Test Example 5: herbicidal effect by foliage application, plastic box (Table 20, symbol N)). Conditions: foliage application, AAH 320 g/ha, three weeks after application.
Assay type: in vivo, redroot pigweed (Amaranthus retroflexus)
Outline: as §2
For C=CCOc1ccc(-c2sc3ccccc3c2-c2c(O)c(C)nn(C)c2=O)cc1 [1-139], the “N: redroot pigweed, herbicidal effect” value was 5 (Herbicidal rate of 90% or more (almost completely withered)).

These compounds were tested on barnyard grass (assay: Test Example 4: herbicidal effect by soil treatment (Table 19, symbol H)). Conditions: AAH 320 g/ha.
Assay type: in vivo, barnyard grass (Echinochloa crus-galli)
Outline: as §1
For C=CCOc1ccc(-c2sc3ccccc3c2-c2c(O)c(C)nn(C)c2=O)cc1 [1-139], the “H: barnyard grass, herbicidal effect rating” value was 4 (Herbicidal rate of 70% or more and less than 90%).

Each compound was assayed on southern crabgrass (assay: Test Example 5: herbicidal effect by foliage application, plastic box (Table 20, symbol F)). Conditions: foliage application, AAH 320 g/ha, three weeks after application.
Assay type: in vivo, southern crabgrass (Digitaria ciliaris)
Outline: as §2
For C=CCOc1ccc(-c2sc3ccccc3c2-c2c(O)c(C)nn(C)c2=O)cc1 [1-139], the “F: southern crabgrass, herbicidal effect” value was 5 (Herbicidal rate of 90% or more (almost completely withered)).

What follows are compounds tested on velvetleaf (assay: Test Example 4: herbicidal effect by soil treatment (Table 19, symbol M)). Conditions: AAH 320 g/ha.
Assay type: in vivo, velvetleaf (Abutilon theophrasti)
Outline: as §1
C=CCOc1ccc(-c2sc3ccccc3c2-c2c(O)c(C)nn(C)c2=O)cc1 [1-139] was tested, and the “M: velvetleaf, herbicidal effect rating” value was 2 (Herbicidal rate of 20% or more and less than 40%).

The compounds below were run on rice flat sedge (assay: Test Example 3: herbicidal effect by foliage application, Wagner pot (Table 18, symbol E)). Conditions: 320 g/ha.
Assay type: in vivo, rice flat sedge (Cyperus iria)
Outline: as §3
C=CCOc1ccc(-c2sc3ccccc3c2-c2c(O)c(C)nn(C)c2=O)cc1 [1-139] was tested, and the “herbicidal effect on E (rice flat sedge), rating 0-5” value was 5 (Herbicidal rate of 90% or more (almost completely withered)).
